From US12145927B2 (BRISTOL-MYERS SQUIBB COMPANY, priority 2018, dated 2024) come the findings set out here.

Each structure is given as a SMILES string. Values joined by “and” are separate entries in the source; they are usually repeats but may differ in a detail not shown here. Equal values may be shown once.

The target in this assay is T1, human IDO1 (Homo sapiens, UniProt P14902).
T1 construct: expressed in transfected cells
T1 sequence (P14902 whole entry): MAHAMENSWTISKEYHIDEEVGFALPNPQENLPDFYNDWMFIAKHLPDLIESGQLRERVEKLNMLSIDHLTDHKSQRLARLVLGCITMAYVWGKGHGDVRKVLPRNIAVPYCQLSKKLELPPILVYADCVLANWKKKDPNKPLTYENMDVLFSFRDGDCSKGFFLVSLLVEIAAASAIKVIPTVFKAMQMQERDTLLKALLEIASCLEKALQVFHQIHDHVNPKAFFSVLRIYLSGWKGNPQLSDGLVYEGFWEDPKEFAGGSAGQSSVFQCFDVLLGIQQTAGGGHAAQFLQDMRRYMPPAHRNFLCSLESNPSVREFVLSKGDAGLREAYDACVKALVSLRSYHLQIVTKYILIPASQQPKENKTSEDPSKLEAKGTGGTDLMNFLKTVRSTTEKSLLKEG
The assay can be described thus: IDO inhibition assay in human IDO1/HEK293 cells (IDO1 HEK Human). In kind it is cell-based. The note with it: HEK293 cells stably expressing human IDO1; 20 hours incubation; absorbance at 490 nm after Ehrlich reagent. The procedure: HEK293 cells were transfected with a pCDNA-based mammalian expression vector harboring human IDO1 cDNA (NM 002164.2) by electroporation. They were cultured in medium (DMEM with 10% FBS) containing 1 mg/ml G418 for two weeks. Clones of HEK293 cells that stably expressed human IDO1 protein were selected and expanded for IDO inhibition assay.
The human IDO1/HEK293 cells were seeded at 10,000 cells per 50 μL per well with RPMI/phenol red free media contains 10% FBS in a 384-well black wall clear bottom tissue culture plate (Matrix Technologies LLC) 100 nL of certain concentration of compound was then added to each well using ECHO liquid handling systems. The cells were incubated for 20 hours in 37° C. incubator with 5% CO2.
The compound treatments were stopped by adding trichloroacetic acid (Sigma-Aldrich) to a final concentration at 0.2%. The cell plate was further incubated at 50° C. for 30 minute. The equal volume supernatant (20 μL) and 0.2% (w/v) Ehrlich reagent (4-dimethylaminobenzaldehyde, Sigma-Aldrich) in glacial acetic acid were mixed in a new clear bottom 384-well plate. This plate was then incubated at RT for 30 minute. The absorbance at 490 nm was measured on Envision plate reader.
Compound IC50 values were calculated using the counts of 500 nM of a reference standard treatment as one hundred percent inhibition, and counts of no compound but DMSO treatment as zero percent inhibition.
As usually defined, the IC50 is the concentration that gives 50% inhibition. A low value points to greater potency. In the case of `Cc1ccc(NC(=O)Nc2cc(-c3ccccc3-c3nnn[nH]3)cc3c2OCCC3c2ccccc2)cc1` (racemic) [Example 132, (+/−)-1-(6-(2-(2H-tetrazol-5-yl)phenyl)-4-phenylchroman-8-yl)-3-(p-tolyl)urea], the IC50 came out at 21.2 nM.

`Cc1ccc(NC(=O)Nc2cc(-c3ccccc3-c3nnn[nH]3)cc3c2OC(C)(C)C3)cc1` [Example 120, 1-(5-(2-(1H-Tetrazol-5-yl)phenyl)-2,2-dimethyl-2,3-dihydrobenzofuran-7-yl)-3-(p-tolyl)urea] displayed an IC50 of 460 nM.

Regarding `c1ccc(C2CCCOc3c(Nc4nc5ccccc5o4)cc(-c4ccccc4-c4nnn[nH]4)cc32)cc1` (single isomer, unassigned) [53 (En. 1), N-(7-(2-(1H-tetrazol-5-yl)phenyl)-5-phenyl-2,3,4,5-tetrahydrobenzo[b]oxepin-9-yl) benzo[d] oxazol-2-amine], it took 216 nM to reach half-maximal inhibition (IC50).

`Cc1ccc(NC(=O)Nc2cc(-c3ccccc3C(=O)O)cc3c2OC(C)(C)C3c2ccccc2)cc1` (racemic) [Example 124, (±)-2-(2,2-Dimethyl-3-phenyl-7-(3-(p-tolyl)ureido)-2,3-dihydrobenzofuran-5-yl) benzoic acid]: the IC50 is 77 nM.

For `Cc1ccc(NC(=O)Nc2cc(-c3ccccc3-c3nnn[nH]3)cc3c2O[C@@H](C)[C@@H]3CCC(F)(F)F)cc1` (relative stereo) [Example 118, rel-1-((2R,3S)-5-(2-(2H-tetrazol-5-yl)phenyl)-2-methyl-3-(3,3,3-trifluoropropyl)-2,3-dihydrobenzofuran-7-yl)-3-(p-tolyl)urea], the concentration for half-maximal inhibition (IC50) was 23 nM.

Take `Cc1nc2ccc(Nc3cc(-c4ccccc4-c4nnn[nH]4)cc4c3OCCCC4c3ccccc3)cc2s1` (single isomer, unassigned) [Example 71, N-(7-(2-(1H-tetrazol-5-yl)phenyl)-5-phenyl-2,3,4,5-tetrahydrobenzo[b]oxepin-9-yl)-2-methylbenzo[d]thiazol-6-amine]: the IC50 turned out to be 3.1 nM. This IC50 lies about 7.4-fold lower than the previous one.

Consider `Cc1ccc(NC(=O)Nc2cc(-c3ccccc3C(=O)O)cc3c2OCCCC3c2ccccc2)cc1` (racemic) [Example 8-1, 2-(5-phenyl-9-(3-(p-tolyl)ureido)-2,3,4,5-tetrahydrobenzo[b]oxepin-7-yl)benzoic acid], for which the IC50 was found to be 27.2 nM.

Take `Cc1ccc(NC(=O)Nc2cc(-c3ccccc3S(=O)(=O)NC(=O)c3ccccc3)cc3c2OCCCC3c2ccccc2)cc1` (single isomer, unassigned) [60 (En. 1), N-((2-(5-phenyl-9-(3-(p-tolyl)ureido)-2,3,4,5-tetrahydrobenzo[b]oxepin-7-yl)phenyl)sulfonyl)benzamide]: the IC50 was more than 6000 nM.

Compound `Fc1cccc2oc(Nc3cc(-c4ccccc4-c4nnn[nH]4)cc4c3OCCCC4C3CC3)nc12` (centres unmarked) [Example 28, N-(7-(2-(1H-tetrazol-5-yl)phenyl)-5-cyclopropyl-2,3,4,5-tetrahydrobenzo[b]oxepin-9-yl)-4-fluorobenzo[d]oxazol-2-amine] gave an IC50 of 2.6 nM.

`Cc1ccc(NC(=O)Nc2cc(-c3ccccc3-c3nnn[nH]3)cc3c2OCCC(C)C3c2ccccc2)cc1` (single isomer, unassigned) [Example 45, 1-(7-(2-(1H-tetrazol-5-yl)phenyl)-4-methyl-5-phenyl-2,3,4,5-tetrahydrobenzo[b]oxepin-9-yl)-3-(p-tolyl)urea]: the half-inhibitory concentration (IC50) was 106 nM and 288 nM.

In turn, `CC(=O)NS(=O)(=O)c1ccccc1-c1cc(NC(=O)Nc2ccc(C)cc2)c2c(c1)C(c1ccccc1)CCCO2` (single isomer, unassigned) [Example 58, N-((2-(5-phenyl-9-(3′-(p-tolyl)ureido)-2,3,4,5-tetrahydrobenzo[b]oxepin-7-yl)phenyl)sulfonyl)acetamide] yielded an IC50 of 1360 nM.

The compound `C=C(C)[C@H]1Oc2c(NC(=O)Nc3ccc(C)cc3)cc(-c3ccccc3-c3nnn[nH]3)cc2[C@@H]1c1ccccc1` (racemic) [Example 93, (+/−)-1-((trans)-5-(2-(1H-tetrazol-5-yl)phenyl)-3-phenyl-2-(prop-1-en-2-yl)-2,3-dihydrobenzofuran-7-yl)-3-(p-tolyl)urea] showed a half-inhibitory concentration (IC50) of 9.1 nM. Against the preceding compound, the IC50 is about 150-fold lower.

On to `Cc1ccc(NC(=O)Nc2cc(-c3ccccc3C(N)=O)cc3c2OCCCC3c2ccccc2)cc1` (centres unmarked) [Example 7, 2-(5-phenyl-9-(3-(p-tolyl)ureido)-2,3,4,5-tetrahydrobenzo[b]oxepin-7-yl)benzamide], for which the IC50 was found to be 40.8 nM. This IC50 lies about 4.5-fold higher than the previous one.

In turn, `Cc1ccc(NC(=O)Nc2cc(-c3ccccc3-c3nnn[nH]3)cc3c2OCCCC3C2CC2)cc1` (racemic) [Example 36, 1-(7-(2-(1H-tetrazol-5-yl)phenyl)-5-cyclopropyl-2,3,4,5-tetrahydrobenzo[b]oxepin-9-yl)-3-(p-tolyl)urea] gave an IC50 of 7.6 nM. This IC50 is about 5.4-fold lower than that of the compound before.

Turning to `Cc1ccc(NC(=O)Nc2cc(-c3ccccc3-c3nnn[nH]3)cc3c2OCCCC3c2ccccc2)nc1` (single isomer, unassigned) [Example 3, 1-(7-(2-(1H-tetrazol-5-yl)phenyl)-5-phenyl-2,3,4,5-tetrahydrobenzo[b]oxepin-9-yl)-3-(5-methylpyridin-2-yl)urea], inhibition was half-maximal at 35.6 nM (IC50). Compared with the last compound, the IC50 is about 4.7-fold higher.

`Cc1ccc(NC(=O)Nc2cc(-c3ccccc3-c3nnn[nH]3)cc3c2OCCCC3C(C)C)cc1` (racemic) [Example 24, 1-(7-(2-(1H-tetrazol-5-yl)phenyl)-5-isopropyl-2,3,4,5-tetrahydrobenzo[b]oxepin-9-yl)-3-(p-tolyl)urea] came in with an IC50 of 4.4 nM.

Compound `Cc1ccc(NC(=O)Nc2cc(-c3ccccc3-c3nnn[nH]3)cc3c2OCCC(C)C3c2ccccc2)cc1` (single isomer, unassigned) [Example 43, 1-(7-(2-(1H-tetrazol-5-yl)phenyl)-4-methyl-5-phenyl-2,3,4,5-tetrahydrobenzo[b]oxepin-9-yl)-3-(p-tolyl)urea] showed a half-maximal inhibitory concentration (IC50) of 30.1 nM.

The compound `C=C(C)C1Oc2c(NC(=O)Nc3ccc(C)cc3)cc(-c3ccccc3C(=O)O)cc2C1c1ccccc1` (racemic) [Example 96] came in with a half-inhibitory concentration (IC50) of 26 nM.

As to `Cc1ccc(-c2nnn[nH]2)c(-c2cc(NC(=O)Nc3ccccc3F)c3c(c2)C(C2CC2)CCCO3)c1` (single isomer, unassigned) [Example 34-1], inhibition was half-maximal at 66 nM (IC50).

`C=CC1Oc2c(NC(=O)Nc3ccc(CC)cc3)cc(-c3ccccc3-c3nnn[nH]3)cc2C1CCC(F)(F)F` (racemic) [Example 99] gave a concentration for half-maximal inhibition (IC50) of 5.6 nM. This IC50 is about 12-fold lower than that of the compound before.

`Cc1csc(NC(=O)Nc2cc(-c3ccccc3-c3nnn[nH]3)cc3c2OCCCC3c2ccccc2)n1` (centres unmarked) [Example 12, 1-(7-(2-(1H-tetrazol-5-yl)phenyl)-5-phenyl-2,3,4,5-tetrahydrobenzo[b]oxepin-9-yl)-3-(4-methylthiazol-2-yl)urea] yielded an IC50 of 1070 nM.

`c1ccc(C2CCCOc3c(Nc4nc5ccccc5o4)cc(-c4ccccc4-c4nnn[nH]4)cc32)cc1` (single isomer, unassigned) [53 (En. 2), N-(7-(2-(1H-tetrazol-5-yl)phenyl)-5-phenyl-2,3,4,5-tetrahydrobenzo[b]oxepin-9-yl) benzo[d] oxazol-2-amine] returned an IC50 of 1.3 nM.

Take `COCC(CC(=O)O)c1cc(Nc2ccc(C#N)cc2)c2c(c1)C(C1CC1)CCCO2` (single isomer, unassigned) [131 (dia. 1), 3-(9-(4-Cyanophenylamino)-5-cyclopropyl-2,3,4,5-tetrahydrobenzo[b]oxepin-7-yl)-4-methoxybutanoic acid]: the 50% inhibitory concentration (IC50) was 25.6 nM.

The compound `Cc1ccc(NC(=O)Nc2cc(-c3ccccc3-c3nnn[nH]3)cc3c2OCCCC3c2ccccc2)nc1` (centres unmarked) [Example 17, 1-(7-(2-(1H-tetrazol-5-yl)phenyl)-5-phenyl-2,3,4,5-tetrahydrobenzo[b]oxepin-9-yl)-3-(5-methylpyridin-2-yl)urea] registered an IC50 of 53 nM. This IC50 is about 2.1-fold higher than that of the compound before.

As for `Cc1ccc(NC(=O)Nc2cc(-c3cc(F)ccc3C(=O)O)cc3c2O[C@@H](C)[C@H]3CCC(F)(F)F)cc1` (relative stereo) [Example 117, rel-4-fluoro-2-((2R,3R)-2-methyl-7-(3-(p-tolyl)ureido)-3-(3,3,3-trifluoropropyl)-2,3-dihydrobenzofuran-5-yl)benzoic acid], inhibition was half-maximal at 2500 nM (IC50).

Regarding `c1ccc(C2CCCOc3c(Nc4ccnc5ccnn45)cc(-c4ccccc4-c4nnn[nH]4)cc32)cc1` (single isomer, unassigned) [Example 81, N-(7-(2-(1H-tetrazol-5-yl)phenyl)-5-phenyl-2,3,4,5-tetrahydrobenzo[b]oxepin-9-yl) pyrazolo[1,5-a]pyrimidin-7-amine], the IC50 came to 2510 nM.

`COC(=O)c1c(OC)cccc1-c1cc(NC(=O)Nc2ccc(C)cc2)c2c(c1)C(c1ccccc1)CCCO2` (centres unmarked) [Example 65, methyl 2-methoxy-6-(5-phenyl-9-(3-(p-tolyl)ureido)-2,3,4,5-tetrahydrobenzo[b]oxepin-7-yl)benzoate]: half-maximal inhibition (IC50) required 381 nM.

As to `O=C(Nc1ccc(C2CC2)cc1F)Nc1cc(-c2ccccc2-c2nnn[nH]2)cc2c1OCCCC2c1ccccc1` (centres unmarked) [Example 6, 1-(7-(2-(1H-tetrazol-5-yl)phenyl)-5-phenyl-2,3,4,5-tetrahydrobenzo[b]oxepin-9-yl)-3-(4-cyclopropyl-2-fluorophenyl)urea], half-maximal inhibition (IC50) was put at 70 nM.

In the case of `O=C(Nc1cc(-c2ccccc2-c2nnn[nH]2)cc2c1OCCCC2c1ccccc1)NC1CC1` (single isomer, unassigned) [23 (En. 2), 1-(7-(2-(1H-tetrazol-5-yl)phenyl)-5-phenyl-2,3,4,5-tetrahydrobenzo[b]oxepin-9-yl)-3-cyclopropylurea], the IC50 is more than 6000 nM.
